Results: PubChem BioAssay (NCI)
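A five-concentration, 48-hour dose response in 96-well plates underlies each endpoint, interpolated linearly between surrounding concentrations. TGI is the concentration that stops growth completely.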

Key:
Experiment in all cases: NCI tumour cell line growth inhibition, 48 h
[1] = test system: 786-0 renal
[2] = test system: A549 NSCLC
[3] = test system: ACHN renal
[4] = test system: COLO 205 colon
[5] = test system: DU-145 prostate
[6] = test system: EKVX NSCLC
[7] = test system: HCC-2998 colon
[8] = test system: HCT-116 colon
[9] = test system: HCT-15 colon
[10] = test system: HL-60(TB) leukemia
[11] = test system: HOP-62 NSCLC
[12] = test system: HS 578T breast
[13] = test system: HT29 colon
[14] = test system: IGROV1 ovarian
[15] = test system: KM12 colon
[16] = test system: LOX IMVI melanoma
[17] = test system: M14 melanoma
[18] = test system: MALME-3M melanoma
[19] = test system: MCF7 breast
[20] = test system: MDA-MB-231 breast
[21] = test system: MDA-N
[22] = test system: MOLT-4 leukemia
[23] = test system: NCI-H226 lung
[24] = test system: NCI-H23 lung
[25] = test system: NCI-H460 lung
[26] = test system: NCI/ADR-RES ovarian
[27] = test system: OVCAR-3 ovarian
[28] = test system: OVCAR-4 ovarian
[29] = test system: OVCAR-5 ovarian
[30] = test system: OVCAR-8 ovarian
[31] = test system: PC-3 prostate
[32] = test system: RPMI-8226 leukemia
[33] = test system: RXF 393 renal
[34] = test system: SF-268 CNS
[35] = test system: SF-295 CNS
[36] = test system: SF-539 CNS
[37] = test system: SK-MEL-2 melanoma
[38] = test system: SK-MEL-28 melanoma
[39] = test system: SK-MEL-5 melanoma
[40] = test system: SK-OV-3 ovarian
[41] = test system: SN12C renal
[42] = test system: SNB-19 CNS
[43] = test system: SW-620 colon
[44] = test system: T-47D breast
[45] = test system: TK-10 renal
[46] = test system: U251 CNS
[47] = test system: UACC-257 melanoma
[48] = test system: UACC-62 melanoma
[49] = test system: UO-31 renal
[50] = test system: A498 renal
[51] = test system: BT-549 breast
[52] = test system: CCRF-CEM leukemia
[53] = test system: HOP-92 NSCLC
[54] = test system: MDA-MB-435
[55] = test system: NCI-H522 lung
[56] = test system: SNB-75 CNS
[57] = test system: CAKI-1 renal
[58] = test system: K-562 leukemia
[59] = test system: SR leukemia

Structure (SMILES): Nc1ncnc2c1nnn2C1C=CC(CP(=O)(O)O)C1 (configuration not stated)
- TGI [1]: > 100 µM
- TGI [2]: > 100 µM
- TGI [3]: > 100 µM
- TGI [4]: > 100 µM
- TGI [5]: > 100 µM
- TGI [6]: > 100 µM
- TGI [7]: > 100 µM
- TGI [8]: > 100 µM
- TGI [9]: > 100 µM
- TGI [10]: > 100 µM
- TGI [11]: > 100 µM
- TGI [12]: > 100 µM
- TGI [13]: > 100 µM
- TGI [14]: > 100 µM
- TGI [15]: > 100 µM
- TGI [16]: > 100 µM
- TGI [17]: > 100 µM
- TGI [18]: > 100 µM
- TGI [19]: > 100 µM
- TGI [20]: > 100 µM
- TGI [21]: > 100 µM
- TGI [22]: > 100 µM
- TGI [23]: > 100 µM
- TGI [24]: > 100 µM
- TGI [25]: > 100 µM
- TGI [26]: > 100 µM
- TGI [27]: > 100 µM
- TGI [28]: > 100 µM
- TGI [29]: > 100 µM
- TGI [30]: > 100 µM
- TGI [31]: > 100 µM
- TGI [32]: > 100 µM
- TGI [33]: > 100 µM
- TGI [34]: > 100 µM
- TGI [35]: > 100 µM
- TGI [36]: > 100 µM
- TGI [37]: > 100 µM
- TGI [38]: > 100 µM
- TGI [39]: > 100 µM
- TGI [40]: > 100 µM
- TGI [41]: > 100 µM
- TGI [42]: > 100 µM
- TGI [43]: > 100 µM
- TGI [44]: > 100 µM
- TGI [45]: > 100 µM
- TGI [46]: > 100 µM
- TGI [47]: > 100 µM
- TGI [48]: > 100 µM
- TGI [49]: > 100 µM

Structure (SMILES): O=C(/C=C/c1ccc(O)c(O)c1)OCCc1ccc2ccccc2c1
- TGI [1]: 20.9 µM
- TGI [50]: 28.4 µM
- TGI [2]: 24.9 µM
- TGI [3]: 15.1 µM
- TGI [51]: 15.7 µM
- TGI [52]: 23.8 µM
- TGI [4]: 16.4 µM
- TGI [5]: 24.3 µM
- TGI [6]: 28.7 µM
- TGI [7]: 30.9 µM
- TGI [8]: 17.9 µM
- TGI [9]: 10.2 µM
- TGI [11]: 26.4 µM
- TGI [53]: 19.6 µM
- TGI [12]: 24.1 µM
- TGI [13]: 25.6 µM
- TGI [14]: 10.4 µM
- TGI [15]: 12.9 µM
- TGI [16]: 20.8 µM
- TGI [17]: 16.9 µM
- TGI [18]: 23.1 µM
- TGI [19]: 8.91 µM
- TGI [20]: 24.3 µM
- TGI [54]: 6.63 µM
- TGI [21]: 5.45 µM
- TGI [22]: 11.3 µM
- TGI [23]: 32.3 µM
- TGI [24]: 14.7 µM
- TGI [25]: 23.7 µM
- TGI [55]: 8.35 µM
- TGI [26]: 18.3 µM
- TGI [27]: 12.4 µM
- TGI [29]: 29.7 µM
- TGI [30]: 26.6 µM
- TGI [31]: 20.5 µM
- TGI [33]: 21.6 µM
- TGI [34]: 27 µM
- TGI [35]: 23.7 µM
- TGI [36]: 19.1 µM
- TGI [37]: 4.35 µM
- TGI [38]: 21.8 µM
- TGI [39]: 13.2 µM
- TGI [40]: 26.3 µM
- TGI [41]: 17.8 µM
- TGI [42]: 25.9 µM
- TGI [56]: 8.22 µM
- TGI [43]: 20.7 µM
- TGI [44]: 18.7 µM
- TGI [45]: 20.4 µM
- TGI [46]: 23.8 µM
- TGI [47]: 23.3 µM
- TGI [48]: 13.9 µM
- TGI [49]: 13.1 µM

Structure (SMILES): c1c[nH]c(-c2cccc3nsnc23)c1
- TGI [1]: > 100 µM
- TGI [50]: > 100 µM
- TGI [2]: > 100 µM
- TGI [3]: > 100 µM
- TGI [51]: > 100 µM
- TGI [57]: > 100 µM
- TGI [52]: > 100 µM
- TGI [4]: > 100 µM
- TGI [5]: > 100 µM
- TGI [6]: > 100 µM
- TGI [7]: > 100 µM
- TGI [8]: > 100 µM
- TGI [9]: > 100 µM
- TGI [11]: > 100 µM
- TGI [13]: > 100 µM
- TGI [14]: > 100 µM
- TGI [58]: > 100 µM
- TGI [15]: > 100 µM
- TGI [16]: > 100 µM
- TGI [17]: > 100 µM
- TGI [18]: > 100 µM
- TGI [19]: > 100 µM
- TGI [20]: > 100 µM
- TGI [54]: > 100 µM
- TGI [21]: > 100 µM
- TGI [22]: > 100 µM
- TGI [23]: > 100 µM
- TGI [24]: > 100 µM
- TGI [25]: > 100 µM
- TGI [55]: > 100 µM
- TGI [26]: > 100 µM
- TGI [28]: > 100 µM
- TGI [29]: > 100 µM
- TGI [30]: > 100 µM
- TGI [31]: > 100 µM
- TGI [32]: > 100 µM
- TGI [33]: > 100 µM
- TGI [34]: > 100 µM
- TGI [35]: > 100 µM
- TGI [36]: > 100 µM
- TGI [37]: > 100 µM
- TGI [38]: > 100 µM
- TGI [39]: > 100 µM
- TGI [40]: > 100 µM
- TGI [41]: > 100 µM
- TGI [42]: > 100 µM
- TGI [56]: > 100 µM
- TGI [59]: > 100 µM
- TGI [43]: > 100 µM
- TGI [44]: > 100 µM
- TGI [45]: > 100 µM
- TGI [46]: > 100 µM
- TGI [47]: > 100 µM
- TGI [48]: > 100 µM
- TGI [49]: > 100 µM
